Laboratory results reported in patent US20100190768A1, “NOVEL FUSED PYROLE DERIVATIVE” (Dainippon Sumitomo Pharma Co., Ltd., priority 2005, published 2010).

Experiments:
H4-III-E cells = test: TAT (tyrosine aminotransferase) assay; format: cell-based; settings: for activation at 10 µM / Agonistic activity of 10 μM test compound: 10 μM test compound alone, relative to maximum Dex-induced TAT activity (100%); for activation at 10 µM: read-out: Agonistic activity of 10 μM test compound; for Antagonistic activity of 10 μM test compound: 10 μM test compound together with 0.005 μM dexamethasone, inhibitory ratio against TAT activity increase by Dex
Method: H4-III-E cells, which had been continuously cultured in α-MEM medium A (supplemented with 10% inactivated FBS, 50 μM 2-mercapto-ethanol), were suspended in α-MEM medium A or α-MEM medium B (supplemented with 10% inactivated FBS, 50 μM 2-mercapto-ethanol, but without phenol red), and the cell suspension was seeded to a 96-well plate in an amount of 2×10^4 cells/100 μl/well, and the cells were cultured overnight. The supernatant in the medium was removed, and a test compound (100 μl, diluted with α-MEM medium A or α-MEM medium B) was added, and the cells were further cultured overnight. In order to measure the agonistic activity, a test compound was added alone, while in order to measure the antagonistic activity, a test compound was added simultaneously together with 0.005 μM dexamethasone and evaluated the extent of the inhibitory effect of said test compound against the TAT activity-inducing activity by dexamethasone.
The culture supernatant in the plate was removed by suction, and a cell lysate (20 μL; 1% NP-40, 0.2% Triton X-100, 0.25% DOC, 0.1% SDS, 1 mM EGTA, 150 mM NaCl, Tris (pH7.4), Protease inhibitor cocktail [2.5 mg/ml aprotinin, 2.5 mg/ml leupeptin, 2.5 mg/ml soybean trypsin inhibitor]) was added, and further thereto was added a TAT reaction reagent (150 μL; 10 N KOH, 0.125 M KH2PO4, 0.5 M α-ketoglutarate, 5 mM Pyridoxal-5′ phosphate, L-tyrosine), and the mixture was reacted at 37° C. for 15 minutes. Further, a 10N KOH (20 μL) was added thereto, and the mixture was reacted at 37° C. for 30 minutes, and the absorbance at 331 nm was measured by a microplate reader (SPECTRA MAX 250).
From the mean absorbance in the wells to which a test compound was added, the mean absorbance in the wells to which a compound and a TAT reaction solution were not added was subtracted.
Agonistic activity (%)=100×[(absorbance of the drug-treated group)−(absorbance of the group without TAT reaction reagent)]/[(absorbance of Dex-treated group)−(absorbance of the group without TAT reaction reagent)]
On the other hand, the antagonistic activity was calculated as follows.
Antagonistic activity (%)=Inhibitory ratio (%) against TAT activity increase by Dex=100−100×[(absorbance of the drug-treated group)−(absorbance of the group without a drug)]/[(absorbance of Dex-treated group)−(absorbance of the group without a drug)]
With regard to the agonistic activity and the antagonistic activity, the results of 10% or more were expressed as O, while the results of less than 10% were expressed as X.

human GRα protein = molecular target: T1, human GRα protein (Homo sapiens, UniProt P04150); test: Binding inhibitory assay (displacement of 3H-dexamethasone from the cytoplasm fraction of baculovirus-infected insect cells); settings: 100 nM test compound; 3H-Dex; NSB with 10 μM dexamethasone; read-out: Binding Inhibitory ratio (%) of 100 nM of test compound
T1 construct: made in house; host or cells: insect cells infected with baculovirus; cytoplasm fraction used
T1 sequence (P04150 1-777): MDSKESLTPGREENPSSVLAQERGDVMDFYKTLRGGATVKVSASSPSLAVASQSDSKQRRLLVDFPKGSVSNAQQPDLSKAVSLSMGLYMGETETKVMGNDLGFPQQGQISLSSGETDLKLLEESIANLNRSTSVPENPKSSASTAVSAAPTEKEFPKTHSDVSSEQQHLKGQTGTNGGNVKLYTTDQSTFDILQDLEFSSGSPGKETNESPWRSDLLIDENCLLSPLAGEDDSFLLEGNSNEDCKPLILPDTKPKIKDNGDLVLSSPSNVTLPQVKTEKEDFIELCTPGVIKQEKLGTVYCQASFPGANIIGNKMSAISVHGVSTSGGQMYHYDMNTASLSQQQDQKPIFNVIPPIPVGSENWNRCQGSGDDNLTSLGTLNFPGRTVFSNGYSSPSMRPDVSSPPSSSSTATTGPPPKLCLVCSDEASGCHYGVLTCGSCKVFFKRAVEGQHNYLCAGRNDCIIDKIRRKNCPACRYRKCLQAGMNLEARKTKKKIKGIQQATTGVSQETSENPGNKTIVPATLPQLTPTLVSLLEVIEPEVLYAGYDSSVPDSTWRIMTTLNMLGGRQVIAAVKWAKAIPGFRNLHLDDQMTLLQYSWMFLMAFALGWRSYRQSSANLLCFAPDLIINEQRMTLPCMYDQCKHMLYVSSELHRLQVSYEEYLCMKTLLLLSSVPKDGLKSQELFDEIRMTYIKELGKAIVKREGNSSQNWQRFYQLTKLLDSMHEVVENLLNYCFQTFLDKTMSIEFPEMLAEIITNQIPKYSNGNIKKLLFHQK
Method: Insect cells, which had been infected with baculovirus for expressing human GRα protein, were suspended in an approximately equal volume of a binding buffer (10 mM Tris-Cl, 1.5 mM EDTA, 10% glycerol, 5 mM DTT, 20 mM sodium molybdate, pH 7.6). The mixture was rapidly frozen with liquid nitrogen, and then melted at room temperature. This cycle was repeated totally twice in order to break the cell membrane. The mixture was ultracentrifuged under 100,000 g at 4° C. for one hour to give the supernatant, which was the cytoplasm fraction containing human GRα protein.
A polypropylene 96-well plate (manufactured by Costar Corporation, etc.) was placed on ice, and DMSO or a test compound (each 1 μl) was put into each well. A 10 nM ^3H-Dex solution (50 μl; tritiated dexamethasone; manufactured by Amersham) in the binding buffer, and a GR protein solution, i.e., a solution by diluting the above cytoplasm fraction with the binding buffer (50 μl) were added to each well, and the plate was lightly shaken with a plate mixer, and then left to stand at 4° C. for 16 to 20 hours (the final concentration of DMSO: 1%).
A 5% solution of dextran-coated active carbon (manufactured by Sigma) suspended in the binding buffer (50 μl) was put into each well, and the plate was lightly shaken with a plate mixer for 30 seconds. Then, the plate was centrifuged at 2500 rpm at 4° C. for 5 minutes, and the ^3H count in the supernatant (50 μl) was measured by a TopCount (manufactured by Perkin-Elmer Corporation). Each test compound was tested twice.
The binding activity was calculated as follows. The mean ^3H count in the presence of dexamethason (Dex) 10 μM was considered as NSB (non-specific binding), and the binding inhibitory ratio in each well was calculated by the following equation.
Binding Inhibitory Ratio (%)=100×{1−(cpm value of each well−NSB)/(mean cpm value of DMSO-well−NSB)}
(cpm means count per minute)
The mean binding inhibitory ratio of each well was calculated by the above equation to give a binding inhibitory ratio of each test compound.

inhibition at 0.1 µM (human GRα protein) [%] | Structure (SMILES) | activation at 10 µM (H4-III-E cells) [%] | Antagonistic activity of 10 μM test compound (H4-III-E cells) | Agonistic activity of 10 μM test compound (H4-III-E cells)
98 | O=[N+]([O-])c1ccc2c(C(O)(CN3CCN(S(=O)(=O)c4ccccc4)CC3)C(F)(F)F)cn(Cc3ccccc3)c2c1 (stereo not drawn) [Example 112, 2-(1-Benzyl-6-nitro-1H-indol-3-yl)-1,1,1-trifluoro-3-[4-(phenylsulfonyl)piperazin-1-yl]propan-2-ol] | < 10 | ◯ | 
78 | O=[N+]([O-])c1ccc2c(C(O)(CN3CCC(Oc4ccccc4Cl)CC3)C(F)(F)F)cn(Cc3ccccc3)c2c1 (stereo not drawn) [Example 119, 2-(1-Benzyl-6-nitro-1H-indol-3-yl)-3-[4-(2-chlorophenoxy)piperidin-1-yl]-1,1,1-trifluoropropan-2-ol] |  | ◯ | ◯
97 | O=[N+]([O-])c1ccc2c(C(O)(CN3CCS(=O)(=O)CC3)C(F)(F)F)cn(Cc3ccccc3)c2c1 (stereo not drawn) [Example 120, 2-(1-Benzyl-6-nitro-1H-indol-3-yl)-3-(1,1-dioxidothiomorpholin-4-yl)-1,1,1-trifluoropropan-2-ol] |  | ◯ | ◯
72 | O=[N+]([O-])c1ccc2c(C(O)(CN3CCC4(CC3)CS(=O)(=O)c3ccccc3O4)C(F)(F)F)cn(Cc3ccccc3)c2c1 (stereo not drawn) [Example 123, 2-(1-Benzyl-6-nitro-1H-indol-3-yl)-3-(4,4-dioxido-1′H-spiro[1,4-benzoxathiine-2,4′-piperidin]-1′-yl)-1,1,1-trifluoropropan-2-ol] | < 10 | ◯ | 
64 | O=[N+]([O-])c1ccc2c(C(O)(CN3CCC4(CC3)CNc3ccccc3O4)C(F)(F)F)cn(Cc3ccccc3)c2c1 (stereo not drawn) [Example 128, 2-(1-Benzyl-6-nitro-1H-indol-3-yl)-3-(3,4-dihydro-1′H-spiro[1,4-benzoxazine-2,4′-piperidin]-1′-yl)-1,1,1-trifluoropropan-2-ol] | < 10 |  | 
84 | COCCNCC(O)(c1cn(Cc2ccccc2)c2cc([N+](=O)[O-])ccc12)C(F)(F)F (stereo not drawn) [Example 131, 2-(1-Benzyl-6-nitro-1H-indol-3-yl)-1,1,1-trifluoro-3-[(2-methoxyethyl)amino]-propan-2-ol] | < 10 |  | 
51 | O=[N+]([O-])c1ccc2c(C(O)(CNCCOc3ccccc3)C(F)(F)F)cn(Cc3ccccc3)c2c1 (stereo not drawn) [Example 133, 2-(1-Benzyl-6-nitro-1H-indol-3-yl)-1,1,1-trifluoro-3-[(2-phenoxyethyl)amino]-propan-2-ol] | < 10 | ◯ | 
92 | O=[N+]([O-])c1ccc2c(C(O)(CNCc3ccccc3)C(F)(F)F)cn(Cc3ccccc3)c2c1 (stereo not drawn) [Example 137, 3-(Benzylamino)-2-(1-benzyl-6-nitro-1H-indol-3-yl)-1,1,1-trifluoropropan-2-ol] |  | ◯ | ◯
80 | O=[N+]([O-])c1ccc2c(C(O)(CNCC3CCCO3)C(F)(F)F)cn(Cc3ccccc3)c2c1 (stereo not drawn) [Example 140, 2-(1-Benzyl-6-nitro-1H-indol-3-yl)-1,1,1-trifluoro-3-[(tetrahydrofuran-2-yl-methyl)amino]propan-2-ol] | < 10 | ◯ | 
97 | COc1cccc(N2CCN(CC(O)(c3cn(Cc4ccccc4)c4cc([N+](=O)[O-])ccc34)C(F)(F)F)CC2)c1 (stereo not drawn) [Example 144, 2-(1-Benzyl-6-nitro-1H-indol-3-yl)-1,1,1-trifluoro-3-[4-(3-methoxyphenyl)-piperazin-1-yl]propan-2-ol] |  | ◯ | ◯
98 | O=[N+]([O-])c1ccc2c(C(O)(Cn3cccn3)C(F)(F)F)cn(Cc3ccccc3)c2c1 (stereo not drawn) [Example 150, 2-(1-Benzyl-6-nitro-1H-indol-3-yl)-1,1,1-trifluoro-3-(1H-pyrazol-1-yl)propan-2-ol] |  | ◯ | ◯
91 | COC(CN1CCC(C(=O)c2ccccc2)CC1)(c1cn(Cc2ccccc2)c2cc([N+](=O)[O-])ccc12)C(F)(F)F (stereo not drawn) [Example 153, {1-[2-(1-Benzyl-6-nitro-1H-indol-3-yl)-3,3,3-trifluoro-2-methoxypropyl]piperidin-4-yl}(phenyl)methanone] |  | ◯ | ◯
96 | O=[N+]([O-])c1ccc2c(C(O)(Cn3ccnc3)C(F)(F)F)cn(Cc3ccccc3)c2c1 (stereo not drawn) [Example 158, 2-(1-Benzyl-6-nitro-1H-indol-3-yl)-1,1,1-trifluoro-3-(1H-imidazol-1-yl)propan-2-ol] | < 10 | ◯ | 
95 | O=[N+]([O-])c1ccc2c(C(O)(CN3CCCC(O)C3)C(F)(F)F)cn(Cc3ccccc3)c2c1 (stereo not drawn) [Example 165, 1-[2-(1-Benzyl-6-nitro-1H-indol-3-yl)-3,3,3-trifluoro-2-hydroxypropyl]piperidin-3-ol] |  | ◯ | ◯

Structure (SMILES) | inhibition at 0.1 µM (human GRα protein) [%] | activation at 10 µM (H4-III-E cells) [%] | Antagonistic activity of 10 μM test compound (H4-III-E cells) | Agonistic activity of 10 μM test compound (H4-III-E cells)
O=C(N1CCOCC1)C(O)(c1cn(Cc2ccccc2)c2ccccc12)C(F)(F)F (stereo not drawn) [Example 152, 2-(1-Benzyl-1H-indol-3-yl)-1,1,1-trifluoro-3-morpholin-4-yl-3-oxopropan-2-ol] | 50 | < 10 |  | 
